We go through 2 molecules from patent US9492471B2, “Methods of treating a disease or disorder associated with Bruton'S Tyrosine Kinase” (Celgene Avilomics Research, Inc., priority 2013, dated 2016).

In one data set the test system is patients with CLL. The data set can be described thus: Compound 1 besylate monotherapy in CLL patients. The format is in vivo, human.
The next data set is described as follows: Environmental stability. Format: physicochemical.
[1] abbreviates: monotherapy, as of Sep. 11, 2012.

Take `C=CC(=O)Nc1cccc(Nc2nc(Nc3ccc(OCCOC)cc3)ncc2F)c1` [Compound 1, N-(3-(5-fluoro-2-(4-(2-methoxyethoxy)phenylamino)pyrimidin-4-ylamino)phenyl)acrylamide]: the “maximum tolerated dose (MTD)” value in the data set with patients with CLL (single agent, up to 750 mg PO QD) was “has not yet been reached”.
Regarding `C=CC(=O)Nc1cccc(Nc2nc(Nc3ccc(OCCOC)cc3)ncc2F)c1.O=S(=O)(O)c1ccccc1` [N-(3-(5-fluoro-2-(4-(2-methoxyethoxy)phenylamino)pyrimidin-4-ylamino)phenyl)acrylamide benzenesulfonic acid salt], in the data set on patients with CLL (setting [1]), the “patients with CLL with stable disease continuing on treatment” value is reported as 35 out of 43, the “patients with early increases in absolute lymphocyte counts (ALC)” value is on record as 28 of 33 and the “patients with reductions in lymph node size” value is given as 15 of 23. Also, the “environmental instabilities (heat, acid, base)” value in the data set “Environmental stability” is given as “no environmental instabilities”.
